SMILES strings stand for the structures.

For data set [1] the following is noted: in vivo. An excerpt: In this context the compound is better than mestranol by a factor of 6.
Data set [2] concerns infantile male rats. The data set can be described thus: Androgenic, anabolic and antiandrogenic effects in infantile male rats. In kind it is in vivo, rat. As to conditions: orally over 6 days, total doses 0.75-3.0 mg/animal. An excerpt: The HE of 97.3% is significant (Table 5).

Take `COc1ccc2c(c1)CC[C@@H]1[C@@H]2CC[C@]2(C)[C@@H](O)C[C@H]3C[C@@]312` [STS 593, 3-methoxy-14β,15β-methylene-estra-1,3,5(10)-triene-17β-ol]: in data set [1], the “Separation of contraceptive activity and undesirable post implantation fetal damage (in words)” value is “favorable separation”; the “Separation of contraceptive activity and undesirable post implantation fetal damage: factor better than mestranol” value amounted to 6 factor. Also, in data set [2], the Anabolic effects entry is “did not show any”, the Androgenic effects entry is “did not show any” and the Antiandrogenic effects entry was “did not show any”.

For the origin of these results see patent publication US4231946A, “14,15-Methylene derivatives of the estrane series and methods for preparing same” (VEB Jenapharm, priority 1978, dated 1980).
